Data on 1 molecule can be found in patent US20220226265A1, “METHODS OF CONTROLLING MYOCARDIAL BLOOD FLOW” (UNIVERSITY OF LOUISVILLE RESEARCH FOUNDATION, INC., priority 2021, published 2022).

This assay concerns WT and Kvβ2−/− mice. The experiment in a line: Arterial blood pressure (femoral artery catheter) during norepinephrine infusion. The note with it: norepinephrine infusion 5 μg/kg·min−1. Type of assay: in vivo, mouse. The source says: In vivo measurements of cardiac function and myocardial blood flow: Mice were anesthetized with 3% isoflurane and supplemental O2, administered (1 L·min^−1) in a small induction chamber. After induction, the mice were placed on a controlled heating table in a supine position. Anesthesia was maintained throughout the procedure by delivery of 1-2% isoflurane and supplemental O2 (0.5 L·min^−1). The extremities were secured to the surgical table by tape and a lubricated probe was inserted rectally to monitor body temperature. The chest, neck, and hind limb hair were then removed using a depilatory agent, the skin was rinsed with warm water, and the neck area was disinfected with 70% ethanol/betadine and an incision (10-15 mm) was made at the right side of the neck. […]
Measurements of cardiac function, myocardial perfusion, and arterial blood pressure were performed at baseline, after administration of hexamethonium (5 mg·kg^−1, i.v.), and following successive doses of norepinephrine (0.5, 1.0, 2.5, and 5.0 μg·kg^−1·min^−1; 3 min duration each dose, followed by 3-5 min washout). […] Left ventricular volume at end diastole (LVEDV) and end systole (LVESV), as well left ventricular internal diameter at end diastole (LVID,d) and end systole (LVID,s) were measured at steady state after drug infusions. […]

In the case of `NC[C@H](O)c1ccc(O)c(O)c1` [norepinephrine], the “time of infusion after which norepinephrine-induced elevation of pressure declined” value (Kvβ2−/− mice) is around 40 s. The “increase in arterial blood pressure” value (WT animals) was “sustained for the duration of drug administration”.
